Assay results taken from patent US6787341B2, “Pharmacological targeting of bacterial DNA ligase for treatment and prevention of bacterial infections” (priority 2001, dated 2004).

What was measured:
Assay type in all cases: biochemical, Amsacta moorei entomopoxvirus
AmEPV ligase [1] = target: T1, AmEPV ligase (Betaentomopoxvirus amoorei, UniProt Q9EMK7); assay: Nucleotide cofactor specificity of AmEPV ligase in nick ligation
Description: Reaction mixtures (20 μl) containing 50 mM Tris-HCl (pH 7.5), 10 mM (NH4)2SO4, 5 mM DTT, 5 mM MgCl2, 1 pmol of ^32P-labeled nicked DNA, 32 ng of AmEPV ligase, and 50 μM of the indicated nucleotide were incubated for 30 min at 22° C. A control reaction contained no added nucleotide cofactor (none). The reaction products were resolved by polyacrylamide gel electrophoresis. An autoradiogram of the gel is shown.
A low level of nick ligation could be detected in the absence of added nucleotide (FIG. 6). Cofactor-independent ligation was attributed to pre-adenylated ligase in the enzyme preparation. […] Inclusion of NAD^+ in the reaction mixture stimulated nick ligation such that ˜90% of the input substrate molecules were sealed (FIG. 6). […] Indeed, none of the standard rNTPs or dNTPs were able to satisfy the requirement of AmEPV ligase for a high energy cofactor (FIG. 6). […] A Km of 9 μM NAD^+ was calculated from a double-reciprocal plot of the data.

AmEPV ligase [2] = target: T1, AmEPV ligase; details: for support of ligase activity as divalent cation: 5 mM
AmEPV ligase [3] = target: T1, AmEPV ligase; assay: Step 3 phosphodiester formation at a pre-adenylated nick by AmEPV ligase; details: 50 μM NAD+
Description: Truncated derivatives of AmEPV ligase deleted for motif Ia (NΔ70) or for the OB and HhH domains (CΔ216) were purified by Ni-agarose and phosphocellulose column cheomtography. FIG. 8A: Aliquots (3 μg) of full-sized AmEPV ligase (WT), NΔ70, and CΔ216 were analyzed by SDS-PAGE. A Coomassie blue-stained gel is shown. The positions and sizes (in kDa) of marker proteins are indicated on the left. FIG. 8B: Ligase adenylation reaction mixtures (20 μl) containing 50 mM Tris-HCl (pH 7.5), 5 mM DTT, 5 mM MgCl2, 1 μM [α-^32P]NAD^+ and 8 pmol of WT AmEPV ligase, NΔ70, or CΔ216 were incubated for 15 min at 22° C. The reaction products were resolved by SDS-PAGE and visualized by autoradiography. The positions and sizes (in kDa) of marker proteins are indicated on the right. FIG. 8C: Ligation of nicked DNA and nicked DNA-adenylate. Reaction mixtures (20 μl) containing 50 mM Tris-HCl (pH 7.5), 10 mM (NH4)2SO4, 5 mM DTT, 5 mM MgCl2, either 200 fmol of ^32P-labeled nicked DNA (pDNA) plus 50 μM NAD^+ or 200 fmol ^32P-labeled nicked DNA-adenylate (AppDNA) and no NAD^+, and 2 pmol of WT AmEPV ligase, NΔ70, or CΔ216 were incubated for 30 min at 22° C. The reaction products were resolved by denaturing PAGE. […]
FIG. 9A: Kinetic analysis of step 3. […] The mixtures were adjusted to 5% glycerol and then analyzed by electrophoresis through a 5% native polyacrylamide gel containing 90 mM Tris-borate, 2.5 mM EDTA. […]

Compound: Nc1ncnc2c1ncn2[C@@H]1O[C@H](COP(=O)(O)OP(=O)(O)OP(=O)(O)O)[C@@H](O)[C@H]1O [ATP]
- stimulation of nick ligation as high energy cofactor (AmEPV ligase [1]; 50 μM nucleotide): failed to stimulate

Compound: [Mn+2] [Manganese]
- support of ligase activity as divalent cation (AmEPV ligase [2]): active, albeit less than magnesium

Compound: NC(=O)c1ccc[n+]([C@@H]2O[C@H](COP(=O)([O-])OP(=O)(O)OC[C@H]3O[C@@H](n4cnc5c(N)ncnc54)[C@H](OP(=O)(O)O)[C@@H]3O)[C@@H](O)[C@H]2O)c1 [NADP]
- stimulation of nick ligation as high energy cofactor (AmEPV ligase [1]; 50 μM nucleotide): inactive

Compound: NC(=O)c1ccc[n+]([C@@H]2O[C@H](COP(=O)([O-])OP(=O)(O)OC[C@H]3O[C@@H](n4cnc5c(N)ncnc54)[C@H](O)[C@@H]3O)[C@@H](O)[C@H]2O)c1 [NAD^+]
- effect on step 3 catalysis by NΔ70 (AmEPV ligase [3]; NΔ70): no effect whatsoever
- decrement in extent of step 3 ligation by wild-type ligase (AmEPV ligase [3]; wild-type AmEPV ligase): 5 fold
- input substrate molecules sealed with nucleotide included (AmEPV ligase [1]; 50 μM nucleotide): ~90%
- NAD+ concentration at which nick joining activity plateaued (AmEPV ligase [1]; sub-saturating enzyme): 50 to 100 µM

Compound: [Ca+2] [calcium]
- support of ligase activity as divalent cation (AmEPV ligase [2]): did not support ligase activity

Compound: [Co+2] [cobalt]
- support of ligase activity as divalent cation (AmEPV ligase [2]): active, albeit less than magnesium

Compound: [Cu+2] [cooper]
- support of ligase activity as divalent cation (AmEPV ligase [2]): did not support ligase activity

Compound: [Mg+2] [magnesium]
- optimal divalent cation concentration for nick joining (AmEPV ligase [2]): 5 mM

Compound: [Zn+2] [zinc]
- support of ligase activity as divalent cation (AmEPV ligase [2]): did not support ligase activity
